Numbers after ± are expanded uncertainties.
What was measured:
[1] = xn = mol fraction of the nth substance listed; details: for electrical conductivity / viscosity / mass density: 101 kPa, Liquid; for electrical conductivity: Alternating current cell with electrodes; for viscosity: Concentric cylinders viscometry; for mass density: Vibrating tube method; for surface tension liquid-gas: Ring tensiometer
[2] = refractive index (Na D-line) (dimensionless); xn = mol fraction of the nth substance listed; details: 101 kPa, Liquid, Standard Abbe refractometry

CCCC[N+](CCCC)(CCCC)CCCC.[Cl-] [tetrabutylammonium chloride] + OCCO
Details | electrical conductivity, [1] [S/m] | mass density, [1] [kg/m3] | refractive index, [2] | surface tension liquid-gas, [1] [mN/m] | viscosity, [1] [mPa·s]
293.15 K, x1 = 0.2 | 0.000202 ± 8e-06 | 1145 ± 1.4 | 1.4615 ± 0.0021 | – | 85.33 ± 8.6
293.15 K, x1 = 0.25 | 0.000154 ± 6.2e-06 | 1130 ± 1.4 | 1.4653 ± 0.0021 | – | 105 ± 11
293.15 K, x1 = 0.333 | 9.91e-05 ± 4e-06 | 1105 ± 1.4 | 1.4703 ± 0.0021 | – | 212 ± 22
303.15 K, x1 = 0.2 | 0.000272 ± 1.1e-05 | 1138 ± 1.4 | 1.4585 ± 0.0021 | 40.7 ± 1.2 | 56.9 ± 5.7
303.15 K, x1 = 0.25 | 0.000214 ± 9e-06 | 1123 ± 1.4 | 1.4619 ± 0.0021 | 40.1 ± 1.2 | 71.9 ± 7.3
303.15 K, x1 = 0.333 | 0.000139 ± 6e-06 | 1099 ± 1.4 | 1.4672 ± 0.0021 | 39.3 ± 1.2 | 127 ± 13
313.15 K, x1 = 0.2 | 0.000354 ± 1.4e-05 | 1132 ± 1.4 | 1.4554 ± 0.0021 | 39.9 ± 1.2 | 37.16 ± 3.8
313.15 K, x1 = 0.25 | 0.000293 ± 1.2e-05 | 1117 ± 1.4 | 1.4587 ± 0.0021 | 39.4 ± 1.2 | 45.17 ± 4.6
313.15 K, x1 = 0.333 | 0.00022 ± 1e-05 | 1092 ± 1.4 | 1.4641 ± 0.0021 | 38.3 ± 1.2 | 76.43 ± 7.7
323.15 K, x1 = 0.2 | 0.00045 ± 2e-05 | 1125 ± 1.4 | 1.4523 ± 0.0021 | 39.1 ± 1.2 | 26.27 ± 2.6
323.15 K, x1 = 0.25 | 0.000387 ± 1.5e-05 | 1110 ± 1.4 | 1.4556 ± 0.0021 | 38.3 ± 1.2 | 29.37 ± 3
323.15 K, x1 = 0.333 | 0.00026 ± 1e-05 | 1086 ± 1.4 | 1.4609 ± 0.0021 | 37.2 ± 1.2 | 49.3 ± 5
333.15 K, x1 = 0.2 | 0.000521 ± 2.1e-05 | 1119 ± 1.4 | 1.4491 ± 0.0021 | 38.3 ± 1.2 | 19.7 ± 2
333.15 K, x1 = 0.25 | 0.000457 ± 1.8e-05 | 1104 ± 1.4 | 1.4525 ± 0.0021 | 37.5 ± 1.2 | 20.23 ± 2
333.15 K, x1 = 0.333 | 0.000375 ± 1.5e-05 | 1079 ± 1.4 | 1.4578 ± 0.0021 | 36.6 ± 1.2 | 33.6 ± 3.4
343.15 K, x1 = 0.2 | 0.000615 ± 2.5e-05 | 1112 ± 1.4 | 1.445 ± 0.002 | 37.5 ± 1.2 | 14.85 ± 1.5
343.15 K, x1 = 0.25 | 0.000567 ± 2.3e-05 | 1097 ± 1.4 | 1.4495 ± 0.0021 | 36.8 ± 1.2 | 14.53 ± 1.5
343.15 K, x1 = 0.333 | 0.000385 ± 1.5e-05 | 1073 ± 1.4 | 1.4545 ± 0.0021 | 35.7 ± 1.2 | 23.53 ± 2.4
353.15 K, x1 = 0.2 | 0.000722 ± 2.9e-05 | 1106 ± 1.4 | 1.4427 ± 0.0021 | 36.8 ± 1.2 | 10.5 ± 1.1
353.15 K, x1 = 0.25 | 0.00062 ± 3e-05 | 1091 ± 1.4 | 1.4469 ± 0.0021 | 36.1 ± 1.2 | 10.7 ± 1.1
353.15 K, x1 = 0.333 | 0.000468 ± 1.9e-05 | 1067 ± 1.3 | 1.4509 ± 0.0021 | 34.9 ± 1.1 | 16 ± 1.6

— the NIST ThermoML archive (doi:10.1021/je5002126)
